We go through 32 substances from patent publication US20050074879A1, “Antisense oligonucleotide modulation of STAT3 expression” (priority 2000, published 2005).

For the series, the system named is Human STAT3 mRNA. The experiment in a line: Inhibition of human STAT3 mRNA levels in A549 cells, 75 nM, real-time PCR (Table 13). As to conditions: 75 nM oligonucleotide with LIPOFECTIN, real-time PCR PPS 199, percent inhibition relative to untreated control cells, average of 2 experiments. It is filed as cell-based. The method, then: Oligonucleotide activity is assayed by quantitation of STAT3 mRNA levels by real-time PCR (RT-PCR) using the ABI PRISMS 7700 Sequence Detection System (PE-Applied Biosystems, Foster City, Calif.) according to manufacturer's instructions. This is a closed-tube, non-gel-based, fluorescence detection system which allows high-throughput quantitation of polymerase chain reaction (PCR) products in real-time. As opposed to standard PCR, in which amplification products are quantitated after the PCR is completed, products in RT-PCR are quantitated as they accumulate. This is accomplished by including in the PCR reaction an oligonucleotide probe that anneals specifically between the forward and reverse PCR primers, and contains two fluorescent dyes. A reporter dye (e.g., JOE or FAM, PE-Applied Biosystems, Foster City, Calif.) is attached to the 5′ end of the probe and a quencher dye (e.g., TAMRA, PE-Applied Biosystems, Foster City, Calif.) is attached to the 3′ end of the probe. When the probe and dyes are intact, reporter dye emission is quenched by the proximity of the 3′ quencher dye. During amplification, annealing of the probe to the target sequence creates a substrate that can be cleaved by the 5′-exonuclease activity of Taq polymerase. […] With each cycle, additional reporter dye molecules are cleaved from their respective probes, and the fluorescence intensity is monitored at regular (six-second) intervals by laser optics built into the ABI PRISM™ 7700 Sequence Detection System. In each assay, a series of parallel reactions containing serial dilutions of mRNA from untreated control samples generates a standard curve that is used to quantitate the percent inhibition after antisense oligonucleotide treatment of test samples.
RT-PCR reagents are obtained from PE-Applied Biosystems, Foster City, Calif. RT-PCR reactions are carried out by adding 25 l PCR cocktail (1× TAQMAN7 buffer A, 5.5 mM MgCl2, 300 µM each of DATP, dCTP and dGTP, 600 µM of dUTP, 100 nM each of forward primer, reverse primer, and probe, 20 U RNAse inhibitor, 1.25 units AMPLITAQ GOLD7, and 12.5 U MuLV reverse transcriptase) to 96 well plates containing 25 l poly(A) mRNA solution. The RT reaction is carried out by incubation for 30 minutes at 48° C. following a 10 minute incubation at 95° C. to activate the AMPLITAQ GOLD7, 40 cycles of a two-step PCR protocol are carried out: 95° C. for 15 seconds (denaturation) followed by 60° C. for 1.5 minutes (annealing/extension).
The compounds were analyzed for their effect on STAT3 mRNA levels in A549 cells. The human lung carcinoma cell line A549 was obtained from the American Type Culture Collection (ATCC) (Manassas, Va.). A549 cells were routinely cultured in DMEM basal media (Invitrogen Corporation, Carlsbad, Calif.) supplemented with 10% fetal calf serum (Invitrogen Corporation, Carlsbad, Calif.), 100 units/mL penicillin, and 100 ug/mL streptomycin (Invitrogen Corporation, Carlsbad, Calif.). Cells were routinely passaged by trypsinization and dilution when they reached 90% confluence.
When cells reached 65-75% confluency, they were treated with oligonucleotide. For cells grown in 96-well plates, wells were washed once with […] OPTI-MEM-1 reduced-serum medium (Invitrogen Corporation, Carlsbad, Calif.) and then treated with 130 µL of OPTI-MEM-1 containing […] LIPOFECTIN (Invitrogen Corporation, Carlsbad, Calif.) and 75 nM of the compounds in Table 13. Cells were treated and data were obtained in duplicate. Untreated cells served as controls. After 4-7 hours of treatment at 37° C., the medium was replaced with fresh medium. Cells were harvested 16-24 hours after oligonucleotide treatment. STAT3 mRNA levels in A549 cells were quantitated by real-time PCR as described by other methods herein.
Probes and primers to human STAT3 were designed to hybridize to a human STAT3 sequence, using published sequence information (incorporated herein as SEQ ID NO: 1). For STAT 3 the PCR primers were: • forward primer: […]
On the technique in general: In qPCR the cycle at which signal appears reflects the starting amount.

Oligonucleotides are written 5' to 3', each unit as a sugar letter and its base; * is a phosphorothioate linkage, no mark a phosphodiester; rarer units and linkages stand in square brackets, end groups in braces. Plain capitals give the bases only. e = 2'-O-(2-methoxyethyl) (MOE); [5mC] = 5-methylcytosine; d = 2'-deoxy (DNA)

Take “337310 (antisense eA*eA*eG*eT*eG*dT*dT*dT*dG*dA*dA*dT*dT*d[5mC]*dT*eG*e[5mC]*eA*eG*eA) [compound 337310]”: the “% Inhib (inhibition of human STAT 3 mRNA levels)” value (“% Inhib” below) was found to be 73%.
Take “337359 (antisense e[5mC]*eA*eA*eT*eG*dA*dA*dT*d[5mC]*dT*dA*dA*dA*dG*dT*eG*e[5mC]*eG*eG*eG) [compound 337359]”: the “% Inhib” value is on record as 57%.
In the case of “337325 (antisense eT*eT*e[5mC]*eT*eT*dG*dG*dG*dA*dT*dT*dG*dT*dT*dG*eG*eT*e[5mC]*eA*eG) [compound 337325]”, the “% Inhib” value was 75%.
The value for “337272 (antisense eA*eT*e[5mC]*eT*eG*d[5mC]*dT*dG*d[5mC]*dT*dT*d[5mC]*dT*d[5mC]*d[5mC]*eG*eT*e[5mC]*eA*e[5mC]) [compound 337272]” was 74%.
Regarding “337302 (antisense eT*eT*eG*eA*e[5mC]*d[5mC]*dA*dG*d[5mC]*dA*dA*d[5mC]*d[5mC]*dT*dG*eA*e[5mC]*eT*eT*eT) [compound 337302]”, the “% Inhib” value stood at 61%.
Consider “337380 (antisense eG*e[5mC]*eA*eA*eT*dG*d[5mC]*d[5mC]*dA*dG*dG*dA*dG*dT*dA*eT*eG*eT*eA*eG) [compound 337380]”, for which the “% Inhib” value is reported as 83%.
As to “337373 (antisense e[5mC]*eA*e[5mC]*eA*eT*d[5mC]*d[5mC]*d[5mC]*d[5mC]*dT*dG*dA*dT*d[5mC]*dA*eT*eG*eG*eG*eT) [compound 337373]”, the “% Inhib” value is reported as 70%.
Consider “337330 (antisense eG*e[5mC]*e[5mC]*eA*eT*dG*dT*dT*dT*dT*d[5mC]*dT*dT*dT*dG*e[5mC]*eA*eA*eA*eA) [compound 337330]”, for which the “% Inhib” value was 59%.
Consider “337336 (antisense eT*e[5mC]*eT*eT*eT*dG*d[5mC]*dT*dG*d[5mC]*dT*dT*dT*d[5mC]*dA*e[5mC]*eT*eG*eA*eA) [compound 337336]”, for which the “% Inhib” value worked out at 79%.
Consider “337369 (antisense e[5mC]*eA*eG*eA*eT*d[5mC]*dA*d[5mC]*d[5mC]*d[5mC]*dA*d[5mC]*dA*dT*dT*e[5mC]*eA*e[5mC]*eT*e[5mC]) [compound 337369]”, for which the “% Inhib” value is 88%.
In the case of “337305 (antisense e[5mC]*eT*eT*eT*eA*dA*dT*dT*dT*dT*dA*dA*dG*d[5mC]*dT*eG*eA*eT*eA*eA) [compound 337305]”, the “% Inhib” value worked out at 25%.
“337281 (antisense eG*eG*eG*eT*eT*dT*dT*dA*dT*dA*dG*dT*dT*dG*dA*eA*eA*eT*e[5mC]*eA) [compound 337281]”: the “% Inhib” value is recorded as 16%.
Consider “337304 (antisense eT*eT*eT*eT*eA*dA*dG*d[5mC]*dT*dG*dA*dT*dA*dA*dT*eT*e[5mC]*eA*eA*e[5mC]) [compound 337304]”, for which the “% Inhib” value is given as 15%.
Turning to “337331 (antisense e[5mC]*e[5mC]*eT*eT*eG*d[5mC]*d[5mC]*dA*dG*d[5mC]*d[5mC]*dA*dT*dG*dT*eT*eT*eT*e[5mC]*eT) [compound 337331]”, the “% Inhib” value stood at 88%.
For “337346 (antisense eA*eA*eT*eG*eT*d[5mC]*dA*dG*dG*dA*dT*dA*dG*dA*dG*eA*eT*eA*eG*eA) [compound 337346]”, the “% Inhib” value is given as 55%.
To “337246 (antisense e[5mC]*eT*e[5mC]*e[5mC]*eT*dA*dA*dA*dT*dT*dA*dA*dG*dA*dA*e[5mC]*eT*eT*e[5mC]*eT) [compound 337246]” belongs 37%; to “337312 (antisense eA*eT*e[5mC]*eA*eG*dG*dT*dG*d[5mC]*dA*dG*d[5mC]*dT*d[5mC]*d[5mC]*eT*e[5mC]*eA*eG*eT) [compound 337312]”, 78%; to “337337 (antisense eA*eT*eG*eT*eT*dG*dT*dT*d[5mC]*dA*dG*d[5mC]*dT*dG*d[5mC]*eT*eG*e[5mC]*eT*eT) [compound 337337]”, 76%.
The value for “337307 (antisense eT*e[5mC]*eA*eA*eT*dG*d[5mC]*dA*d[5mC]*dA*d[5mC]*dT*dT*dT*dA*eA*eT*eT*eT*eT) [compound 337307]” was 53%; that for “337338 (antisense eA*eT*eG*eA*e[5mC]*dA*dT*dG*dT*dT*dG*dT*dT*d[5mC]*dA*eG*e[5mC]*eT*eG*e[5mC]) [compound 337338]” was 80%; that for “337260 (antisense e[5mC]*e[5mC]*eA*eT*eT*dG*dG*dG*d[5mC]*d[5mC]*dA*dT*d[5mC]*d[5mC]*dT*eG*e[5mC]*eT*eA*eA) [compound 337260]” was 62%.
The value for “337299 (antisense eT*e[5mC]*eT*eG*eA*dA*dG*dT*dT*dG*dA*dG*dA*dT*dT*e[5mC]*eT*eG*e[5mC]*eT) [compound 337299]” was 80%; that for “337288 (antisense eT*eG*eG*eT*e[5mC]*dA*d[5mC]*dT*dG*dA*d[5mC]*dT*dG*dG*dT*eT*eG*eT*eT*eT) [compound 337288]” was 84%; that for “337362 (antisense eA*eT*eT*eT*e[5mC]*d[5mC]*dA*dA*dA*d[5mC]*dT*dG*d[5mC]*dA*dT*e[5mC]*eA*eA*eT*eG) [compound 337362]” was 69%.
As to “337379 (antisense eG*eT*eA*eT*eG*dT*dA*dG*d[5mC]*dT*dA*dT*dA*dG*dG*eT*eG*eG*e[5mC]*e[5mC]) [compound 337379]”, the “% Inhib” value worked out at 71%.
The value for “337258 (antisense eT*e[5mC]*e[5mC]*eG*eG*d[5mC]*dA*dG*dA*dG*dG*d[5mC]*d[5mC]*dG*dA*eG*eA*eG*eG*e[5mC]) [compound 337258]” was 56%; that for “337349 (antisense eT*eA*e[5mC]*eT*eT*dT*d[5mC]*d[5mC]*dG*dA*dA*dT*dG*d[5mC]*d[5mC]*eT*e[5mC]*e[5mC]*eT*e[5mC]) [compound 337349]” was 65%.
The value for “337282 (antisense e[5mC]*eT*eT*eG*eA*dG*dG*dG*dT*dT*dT*dT*dA*dT*dA*eG*eT*eT*eG*eA) [compound 337282]” was 58%.
With “337377 (antisense eG*e[5mC]*eT*eT*eA*d[5mC]*dA*dG*dA*dA*dA*d[5mC]*dA*dG*dG*e[5mC]*eA*eG*eA*eA) [compound 337377]”, the “% Inhib” value turned out to be 78%.
Turning to “337245 (antisense eA*eG*e[5mC]*e[5mC]*eT*d[5mC]*dT*dG*d[5mC]*dA*d[5mC]*d[5mC]*d[5mC]*dT*d[5mC]*eA*eT*eG*eT*eT) [compound 337245]”, the “% Inhib” value came to 77%.
The value for “337371 (antisense eG*eA*eA*e[5mC]*eA*d[5mC]*dA*dT*d[5mC]*d[5mC]*dT*dT*dA*dT*dT*eT*eG*e[5mC]*eA*eT) [compound 337371]” was 76%; that for “337248 (antisense eT*eA*eT*eT*eG*dA*dA*dA*dA*dT*dT*dA*dT*d[5mC]*dT*eA*eA*eT*eT*e[5mC]) [compound 337248]” was 0%.
